Values quoted from earlier work as cited in patent publication US20070232656A1, “Pharmaceutical Composition And Method For Treating Neurodegenerative Disorders” (Myriad Genetics, Incorporated, priority 2004, published 2007).
Where two headings read alike, the source gives them in different places.

Legend:
[1] = for efficacy for treating AD: clinical trials in AD patients (rofecoxib at 25 mg daily)
[2] = patients having mild cognitive impairment
[3] = in vivo Alzheimer's disease excitotoxic model system
[4] = test system: Aβ42; conditions: transgenic mouse model
[5] = 50 mg and 100 mg doses, human subjects
[6] = test system: Aβ42; conditions: CHO cells
[7] = test system: COX

## COc1ccc2cc([C@H](C)C(=O)O)ccc2c1 [Naproxen]
[1]
  efficacy for treating AD: failed to show efficacy

## CC12CC3CC(C)(C1)CC(N)(C3)C2 [memantine]
[1]; mild-to-moderate AD
  efficacy in treating mild-to-moderate AD: showed efficacy

## CS(=O)(=O)c1ccc(C2=C(c3ccccc3)C(=O)OC2)cc1 [rofecoxib]
[2]
  prevention of the development of Alzheimer's disease: failed to prevent the development of Alzheimer's disease
[2]; 4.5% for placebo
  patients who developed AD: 6.4%
[1]
  efficacy for treating AD: failed to show efficacy
[3]
  neuroprotection: provides neuroprotection

## C[C@@H](C(=O)O)c1ccc(-c2ccccc2)c(F)c1 [(R)-2-(2-fluoro-4-biphenylyl)propionic acid]
[4]
  lowering of Aβ42: lower Aβ42
[5]
  analgesic effect: produced an analgesic effect
[6]
  lowering of Aβ42: lower Aβ42
[7]
  inhibition of COX activity: negligibly inhibits COX activity
